For orientation: solubility means the concentration that dissolves in the medium under given conditions. Read a low solubility as little dissolved substance.

The conditions of data set [1]: cited from earlier work.
For data set [2] the following is noted: eg. intravenous administration; cited from earlier work.
A short description of data set [3]: Sterile filtration through a 0.2 μm filter (criterion for successful solubilization). The data set is classed as physicochemical. How it is done:
The following examples illustrate the invention. The criterion for successful solubilization is the possibility of sterile filtration through a 0.2 μm filter.
(§1) 40 mg of Z were dissolved in 10 ml of dichloromethane/methanol (9+1). All the solvent was removed again from the solution in a rotary evaporator under reduced pressure. 8 ml of a buffer solution (consisting of o-phsophoric acid [0.01 M] and sucrose [0.265 M] and EDTA disodium salt [0.1 mg/ml], pH about 1.9) were added to the residue, and the flask was rotated on the rotary evaporator (without reducing the pressure) with the water at 50° C for 1 h. […] Cooling to room temperature was followed by titration with 2 molar sodium hydroxide solution to pH 6.8, and the total volume was then made up to 10 ml with the abovementioned buffer solution (pH 6.8; titrated with NaOH). […] The clear supernatant was filtered through a 0.2 micrometer syringe filter, and the active substance concentration in this solution was determined by spectrophotometry.
(§2) The experiment was carried out like experiment A but 1.0 g of phospholipid (egg lecithin E 100, from Lipoid KG, Ludwigshafen) was weighed in addition to the active substance.
(§3) The experiment was carried out like experiment B, but after addition of the buffer solution (pH 1.9) and stirring at 50° C. (1 h), 100 microliters of a dilute aqueous solution of glacial acetic acid (120.1 g/l) were added, and this solution was then titrated to pH 4.6 with sodium hydroxide solution (2 molar).
The pH was adjusted to 4.8.

Data set [4] in a line: Physical stability of the solutions (precipitation / flocculation). Format: physicochemical. As for the experimental part:
as §1, with “spectrophotometry. The active substance content in this solution was below 0.1 mg/ml.” for “spectrophotometry.”
as §2
The active substance content of the solution which had been titrated to pH 6.8 and sterilized by filtration was 4.0 mg/ml. The solution slowly flocculated out after about 12-24 h, both at room temperature and in a refrigerator.
as §3

Data set [5] is described as follows: Active substance content of solution after 0.2 μm filtration (spectrophotometry). The data set is classed as physicochemical. How it is done:
A derivative of these bisnaphthalimides [drawing 1] was used to investigate the solubility in aqueous formulations as follows: […]
as §1, with “spectrophotometry. The active substance content in this solution was below 0.1 mg/ml.” for “spectrophotometry.”
as §2, §3

Setting [6] is: Comparative Example: like Example 1, experiment C.

Converted amounts (≈) assume the structure as drawn. Counter-ions that a name gives are not always drawn. Like-named read-outs stand apart in the source and are kept apart here.

For `CC(C)[C@@](C#N)(CCCN(C)CCc1ccccc1)c1ccccc1` [levemopamil hydrochloride], in data set [1] (in words), the solubility in water entry is on record as “adequately soluble in water”. In addition, in data set [2], the “local intolerance on administration” value is recorded as “show problems due to local intolerance on administration (eg. vein irritation on intravenous administration)”.
With dolastatin 15, in data set [3] (Example 3: active substance 10 mg/ml, phospholipid 100 mg/ml), the sterile filtration result is reported as “It was possible to sterilize the solution by filtration”. In data set [1] (in words), the solubility in water result is reported as “low solubility in water”.
As to `O=C(C(c1ccccc1)c1ccccc1)N1CCN(CC(O)COc2cccc3ncccc23)CC1` (stereo not drawn), in data set [3], the sterile filtration entry is “It was possible to sterilize the resulting solution by filtration”.
Consider `CCS(=O)(=O)Oc1ccc2c(C)c(C)c(=O)oc2c1` [esuprone], for which, in data set [3] (setting [6]), the “filtration through 0.2 μm or 0.45 μm filter” value is “could not be filtered either through a 0.2 μm filter or through a 0.45 μm filter” and the “particle size of resulting solution” value is reported as “contained large colloidal particles”. In addition, the solubility in water in data set [1] (water) was 15 µg/mL (≈ 0.0531 mM).
With `O=C1c2cccc3cc([N+](=O)[O-])cc(c23)C(=O)N1CCCCNCCCN1C(=O)c2cccc3cc([N+](=O)[O-])cc(c23)C1=O` [Z], the “dissolution in acidic buffer” value in data set [4] (Experiment A: buffer pH about 1.9, 50° C, 1 h, no phospholipid) is on record as “It was possible in this way to dissolve a considerable portion of the active substance”. Also, in data set [4] (Experiment A: no phospholipid, cooled, titrated to pH 6.8), the precipitation on titration result is “Most of the active substance precipitated again”. Besides, the “time to flocculation of solution” value in data set [4] (Experiment B: egg lecithin, pH 6.8, room temperature and refrigerator) was in the range of 12 to 24 h. The stability of solution entry in data set [4] (Experiment C: egg lecithin, pH 4.6, room temperature and refrigerator) is listed as “stable for weeks without flocculating out”. In addition, the solubility is 4000 µg/mL (≈ 6.72 mM) in data set [5] (Experiment C: egg lecithin E 100, acetic acid, titrated to pH 4.6, sterile filtration); 4000 µg/mL (≈ 6.72 mM) in data set [5] (egg lecithin e 100 solution, Experiment B (comparative): 1.0 g egg lecithin E 100, titrated to pH 6.8, sterilized by filtration); below 100 µg/mL in data set [5] (sucrose/phosphoric acid buffer, Experiment A (comparative): no phospholipid, sucrose/phosphoric acid, titrated to pH 6.8, 0.2 μm filtered).

Values taken from patent US5626864A, “Preparation of colloidal aqueous solutions of active substances of low solubility” (priority 1993, dated 1997).
